We go through 3 compounds from US4713378A, “Penem derivatives” (Farmitalia Carlo Erba S.p.A., priority 1984, dated 1987).

In brackets after ≈: the same amount, converted by molar mass. Read-outs that look alike come from different tables or passages of the source. Some results are limits rather than exact numbers.

What all share (type): cell-based
Assay [1] relates to Staphylococcus aureus Smith. Nature of the assay: antibacterial in vitro activity (MIC), Staphylococcus aureus Smith. The text has this:
(§1) Comparison between the antibacterial in vitro activity
(§2) (MIC, μg/ml) of compound "5" and two reference drugs: […]

The test system of assay [2] is Proteus mirabilis FI 7474. The experiment in a line: antibacterial in vitro activity (MIC), Proteus mirabilis FI 7474. Particulars: FI7474; Proteus mirabilis FI 7474, in vitro.
Excerpt: as §1, §2

Assay [3] relates to Shigella flexneri ATCC 11836. Nature of the assay: antibacterial in vitro activity (MIC), Shigella flexneri ATCC 11836. Particulars: ATCC11836; Shigella flexneri ATCC 11836, in vitro.
Excerpt: as §1, §2

In a further assay the test system is Escherichia coli 026:B6. The experiment in a line: antibacterial in vitro activity (MIC), Escherichia coli 026:B6. The settings on record: Escherichia coli 026:B6, in vitro.
Excerpt: as §1, §2

The subject of assay [4] is Pseudomonas aeruginosa ATCC 19660. The experiment in a line: antibacterial in vitro activity (MIC), Pseudomonas aeruginosa ATCC 19660. Particulars: ATCC19660; Pseudomonas aeruginosa ATCC 19660, in vitro.
Excerpt: as §1, §2

The test system of assay [5] is Streptococcus pyogenes ATCC 12384. The experiment in a line: antibacterial in vitro activity (MIC), Streptococcus pyogenes ATCC 12384. The settings on record: ATCC12384; Streptococcus pyogenes ATCC 12384, in vitro.
Excerpt: as §1, §2

Assay [6] has as its system Citrobacter freundii ATCC 8090. Nature of the assay: antibacterial in vitro activity (MIC), Citrobacter freundii ATCC 8090. Particulars: ATCC8090; Citrobacter freundii ATCC 8090, in vitro.
Excerpt: as §1, §2

The subject of assay [7] is Salmonella typhimurium ATCC 14028. The experiment in a line: antibacterial in vitro activity (MIC), Salmonella typhimurium ATCC 14028. Particulars: Salmonella enterica; Salmonella typhimurium ATCC 14028, in vitro.
Excerpt: as §1, §2

For assay [8], the system named is Escherichia coli B Cef. R (β-lact.+). Nature of the assay: antibacterial in vitro activity (MIC), Escherichia coli B Cef. R (β-lact.+).
Excerpt: as §1, §2

For assay [9], the system named is Klebsiella aerogenes 1082E (β-lact.+). The experiment in a line: antibacterial in vitro activity (MIC), Klebsiella aerogenes 1082E (β-lact.+).
Excerpt: as §1, §2

Assay [10] concerns Proteus morganii ATCC 25830. Nature of the assay: antibacterial in vitro activity (MIC), Proteus morganii ATCC 25830. Particulars: Morganella morganii, ATCC25830; Proteus morganii ATCC 25830, in vitro.
Excerpt: as §1, §2

The subject of the next assay is Escherichia coli B. Nature of the assay: antibacterial in vitro activity (MIC), Escherichia coli B.
Excerpt: as §1, §2

The test system of assay [11] is Serratia marcescens ATCC 2902. Nature of the assay: antibacterial in vitro activity (MIC), Serratia marcescens ATCC 2902. Particulars: ATCC2902; Serratia marcescens ATCC 2902, in vitro.
Excerpt: as §1, §2

Assay [12] deals with Staphylococcus aureus 209 P. The experiment in a line: antibacterial in vitro activity (MIC), Staphylococcus aureus 209 P.
Excerpt: as §1, §2

Assay [13] deals with Enterobacter cloacae 1321 E. Nature of the assay: antibacterial in vitro activity (MIC), Enterobacter cloacae 1321 E.
Excerpt: as §1, §2

The test system of assay [14] is Enterobacter cloacae P 99 (β-lact.+). The experiment in a line: antibacterial in vitro activity (MIC), Enterobacter cloacae P 99 (β-lact.+).
Excerpt: as §1, §2

In assay [15] the test system is Escherichia coli 026:B6 Cef R. The experiment in a line: antibacterial in vitro activity (MIC), Escherichia coli 026:B6 Cef R.
Excerpt: as §1, §2

The mark [16] stands for this setting: Staphylococcus aureus 209 P, in vitro, read-out: MIC.
Where [17] appears, read: Enterobacter cloacae P 99 (β-lact.+), in vitro, read-out: MIC.

In general, MIC refers to the lowest concentration that inhibits growth of the organism. Consider `C[C@@H](O)[C@H]1C(=O)N2C(C(=O)[O-])=C(C[N+]3(C)CCCC3)S[C@H]12` [Compound 5, (5R,6S)-6-[(1R)-hydroxyethyl]-2-[1-(1-methylpyrrolidinio)]-methylpenem-3-carboxylate], for which the MIC was below 0.005 µg/mL in assay [1]; 0.19 µg/mL (≈ 0.608 µM) in assay [2]; 0.045 µg/mL (≈ 0.144 µM) in [3]; 0.005 µg/mL (≈ 0.016 µM) in the assay on Escherichia coli 026:B6; 25 µg/mL (≈ 80 µM) in assay [4]; below 0.005 µg/mL in assay [5]. In addition, the MIC in assay [6] was 0.09 µg/mL (≈ 0.288 µM); in [7], 0.045 µg/mL (≈ 0.144 µM); in assay [8], 0.045 µg/mL (≈ 0.144 µM); in assay [9], 0.045 µg/mL (≈ 0.144 µM); in [10], 0.38 µg/mL (≈ 1.22 µM); with Escherichia coli B, 0.045 µg/mL (≈ 0.144 µM). For the same compound, the minimum inhibitory concentration (MIC) is 0.78 µg/mL (≈ 2.5 µM) in [11], below 0.005 µg/mL in assay [12] (setting [16]), 0.045 µg/mL (≈ 0.144 µM) in assay [13] and 0.045 µg/mL (≈ 0.144 µM) in assay [14] (setting [17]).
In the case of `CC(=O)OCC1=C(C(=O)O)N2C(=O)[C@H]([C@@H](C)O)[C@H]2S1` [FCE 21420], the MIC in assay [1] was 0.023 µg/mL (≈ 0.0801 µM); in assay [15], 3.12 µg/mL (≈ 10.9 µM); in assay [3], 0.39 µg/mL (≈ 1.36 µM); in assay [4], above 50 µg/mL; in [5], 0.045 µg/mL (≈ 0.157 µM); in [6], 0.78 µg/mL (≈ 2.71 µM). The minimal inhibitory concentration (MIC) in [7] was determined as 0.39 µg/mL (≈ 1.36 µM); in assay [8], 0.39 µg/mL (≈ 1.36 µM); in [9], 0.78 µg/mL (≈ 2.71 µM); in [10], 0.78 µg/mL (≈ 2.71 µM); in assay [11], 3.1 µg/mL (≈ 10.8 µM); in [12] (setting [16]), 0.045 µg/mL (≈ 0.157 µM). Besides, the MIC in assay [14] (Enterobacter cloacae) came to 3.12 µg/mL (≈ 10.9 µM).
Regarding `CO/N=C(\C(=O)N[C@@H]1C(=O)N2C(C(=O)O)=C(COC(C)=O)CS[C@H]12)c1csc(N)n1` [Cefotaxime], the MIC in assay [1] was determined as 0.78 µg/mL (≈ 1.71 µM); in assay [15], 1.56 µg/mL (≈ 3.43 µM); in assay [3], 0.023 µg/mL (≈ 0.0505 µM); in the assay with Escherichia coli 026:B6, 0.78 µg/mL (≈ 1.71 µM); in [4], 12 µg/mL (≈ 26.3 µM); in assay [5] it was 0.78 µg/mL (≈ 1.71 µM). Further, the MIC in assay [7] turned out to be 0.045 µg/mL (≈ 0.0988 µM); in assay [8], 0.19 µg/mL (≈ 0.417 µM); in assay [9] it was 3.12 µg/mL (≈ 6.85 µM); in assay [10], 0.011 µg/mL (≈ 0.0242 µM); in the assay with Escherichia coli B it was 0.011 µg/mL (≈ 0.0242 µM); in assay [12] (Staphylococcus aureus, 209P), 1.56 µg/mL (≈ 3.43 µM). In addition, in assay [14] (setting [17]), the MIC is above 100 µg/mL.
